Experimental data published in US8361758B2, “Microorganism of Corynebacterium genus having resistance to kanamycin and enhanced L-lysine productivity and method of producing L-lysine using the same” (priority 2005, dated 2013).

Tests used:
[1] = test system: Corynebacterium glutamicum KFCC10881-CJP5103; experiment: Resistance to kanamycin: growth on minimal agar plate medium containing kanamycin; type: cell-based; conditions: Kanamycin 5 mg/l, cultured four days, kanamycin-resistant mutant
Protocol: (§1) Next, an experiment of resistance to kanamycin with respect to the selected mutant resistant to kanamycin, Corynebacterium glutamicum KFCC10881-CJP5103, and the parent bacteria was performed. First, the two microorganisms were cultured in a Luria Bertani (LB) liquid medium for 16 hours, and then the cells were washed using sterile normal saline two times. Then, the washed cells were properly diluted and the resulting product was cultured in a minimal agar plate medium containing kanamycin having a concentration of 5 mg/l for four days to measure productivity of each microorganism. A composition of the minimal agar plate medium is the same as follows: 10 g of glucose, 2 g of (NH4)2SO4, 2 g of urea, 1.0 g of KH2PO4, 3.0 g of K2HPO4, 0.5 g of MgSO4.7H2O, 10 mg of FeSO4.7H2O, 10 mg of MnSO4.7H2O, 100 μg of biotin, 100 lag of thiamine. HCl, 100 μg of CaCl2.2H2O, 80 μg of Na2B4O7.10H2O, 40 μg of (NH4)6MoO27.4H2O, 10 μg of ZnSO4.7 H2O, 300 μg of CuSO4.7 H2O, 10 μg of MnCl2.4H2O, 1 mg of FeCl3.6H2O, 20 g of agar, 0.1 g of L-leucine if necessary, 0.1 g of L-threonine if necessary, 0.1 g of L-methionine if necessary, per 1 L of distilled water (pH 7.0).
(§2) The results of measuring productivity of the mutant and the parent bacteria in a kanamycin-containing medium are shown in Table. 1.

[2] = test system: Corynebacterium glutamicum KFCC10881; experiment: as above; type: cell-based; conditions: Kanamycin 5 mg/l, cultured four days, parent strain
Protocol: as §1, §2

## NC[C@H]1O[C@H](O[C@H]2[C@H](O)[C@@H](O[C@H]3O[C@H](CO)[C@@H](O)[C@H](N)[C@H]3O)[C@H](N)C[C@@H]2N)[C@H](O)[C@@H](O)[C@@H]1O [Kanamycin, kanamycin]
[1]
  Growth of KFCC-10881-CJP5103 in kanamycin-containing medium: +++
[2]
  Growth of KFCC-10881 in kanamycin-containing medium: −
